Entries after “also recorded” stand apart in the source; their conditions may differ.
What was measured:
[1] = Solubility of vorolanib in water; format: physicochemical
Protocol: Vorolanib has the chemical designation (S,Z)—N-(1-(Dimethylcarbamoyl) pyrrolidin-3-yl)-5-((5-fluoro-2-oxoindolin-3-ylidene)methyl)-2,4-dimethyl-1H-pyrrole-3-carboxamide. Synonyms include the term “X-82”. The molecular formula is C23H26FN5O3. The solubility of vorolanib in water is less than 10 μg/mL.

[2] = system: sodium Hyaluronate-induced retinal detachment; test: Sodium hyaluronate-induced retinal detachment model: OKT and OCT; format: in vivo, C57Bl/6 mice
Protocol: (§1) An 18-day study was conducted in age-matched and experimentally naive C57Bl/6 mice. Prior to experiments, the mice were randomly distributed into two separate study arms, and identification numbers were assigned to individual mice. Prior to dosing initiation, baseline experiments were conducted to measure visual acuity and contrast vision by optokinetic tracking (OKT), and to measure retinal and outer nuclear layer (ONL) thickness in images obtained by optical coherence tomography (OCT). On Day 1, and continuing until Day 18, the mice received once a day oral administration of vehicle (Arm 1), or Vorolanib at 40 mg/kg (Arm 2). On Day 2, bilateral subretinal injection of sodium hyaluronate was performed to induce retinal detachment. On Day 16, visual acuity and contrast vision thresholds were measured, and on Day 17, OCT was performed to measure retinal and ONL thickness. On Day 18, terminal collections were performed at either 30 minutes, or 4 hours, post-administration, with whole blood collected and processed to plasma, left eyes collected and fixed for histology, and right eyes collected and dissected to yield cornea, lens, retinal pigment epithelium (RPE)/choroid/sclera, and retina, separately.
Mouse eyes were dilated and the animals were anesthetized according to standard operating procedures. The mouse was placed on a regulated heating pad, and the posterior pole was visualized under magnification. A 12.7 mm 30-gauge insulin syringe was used to puncture the cornea just above the corneal limbus, avoiding any contact with the sclera and lens. The transvitreal subretinal injections were performed using a 10 μL Hamilton syringe with a 33-gauge blunt needle inserted through the corneal puncture across the vitreous, with the shaft aimed at the back of the eyecup, avoiding any trauma to the lens or iris. A total volume of 1 μL was delivered.
OKT is performed using an OptoMotry designed for rodent use (Cerebral Mechanics Inc.). In this non-invasive assessment, mice are placed onto a platform surrounded by 4 LCD screens which reside within a light-protected box. Visual stimuli are then presented to the mouse via the LCD screens and a masked observer visualizes and scores optokinetic tracking reflexes from a digital camcorder which is mounted on the top of the box. The monitors display continuous vertical sine wave gratings rotating across the monitors at 12 degrees/s which appear to the animal as a virtual three-dimensional rotating […]. The rotation of the virtual cylinder is constantly centered at the animal's viewing position to ensure a consistent viewing distance. Tracking movements are identified as slow, steady head movements in the direction of the rotating grating. For measurements of spatial frequency threshold, mice were tested at a range of spatial frequencies from 0.064 to 0.464 cycles/degree. […] All measurements of contrast threshold were performed at a spatial frequency threshold of 0.064 cycles/degree. The contrast threshold is calculated as a reciprocal of the Michelson contrast from the screen's luminance (maximum−minimum)/(maximum+minimum). The reciprocal of the contrast threshold is plotted.
Animals were anesthetized and eyes were dilated according to standard procedures. Following sedation and dilation, animals were secured on a platform and presented to a Micron
IV OCT module (Phoenix Research Inc.) for imaging. The total retina thickness and outer nuclear layer thickness were measured from vertical and horizontal scans within each eye, and the data was plotted as the average retinal thickness across the scans.
Graphs were generated using GraphPad Prism (v. 9.4.0). […]

[3] = Plasma and ocular tissue levels after oral vorolanib in the retinal detachment study; format: in vivo, C57Bl/6 mice; conditions: 40 mg/kg oral once a day
Protocol: as §1
(§2) Day 18 at 30 min±5 min following oral administration of vehicle or test agent: Terminal plasma collection; Enucleation of eyes with left eyes fixed in 10% NBF and right eyes dissected to yield cornea, lens, RPE/choroid/sclera, and retina, with tissue snap frozen in liquid N2 with tube and tissue weights recorded (n=4 mice/arm).
as §2, with “4 hr±15” for “30 min±5”
Oral gavage was performed on conscious mice by trained personnel; no anesthesia was required. […]

[4] = system: Swine (Mini-pig) Model of Laser-Induced Choroidal Neovascularization (CNV); test: Laser-induced choroidal neovascularization model, fluorescein angiography (CTLF); format: in vivo; conditions: Day 0
Protocol: Safety and efficacy of a vorolanib insert were evaluated in a Swine (Mini-pig) Model of Laser-Induced Choroidal Neovascularization (CNV). The primary objective of this study was to evaluate the long-term safety and inhibition of vascular permeability and neovascularization in a laser-induced model of choroidal neovascularization (CNV) using a vorolanib insert in swine.
On the day of lasering (Groups 1-4) animals were treated with an 810 nm diode laser delivered through an indirect ophthalmoscope. Approximately 6 single laser spots were placed between retinal veins. Both eyes underwent laser treatment according to the schedule in the table above.
On the day of intravitreal injections animals were anesthetized and the eyes were aseptically prepared. […] Animals were allowed to recover normally from the procedure. The pigs were given a topical drop of antibiotic ophthalmic solution 4-6 hours later, and then BID for 2 additional days with at least 6 hours between doses. Animals were dosed on either Day 0 immediately following laser CNV induction or 7 days prior to laser CNV induction according to the schedule in the table above.
Flourescein Angiography was done in both eyes in anesthetized animals at the timepoints as indicated in the experimental design table.

[5] = 40 mg/kg oral once a day, baseline to Day 17, OCT

solubility [1] [µg/mL] | presence in plasma ([3]; 18 consecutive days) | Compound | overall effect in retinal detachment model ([2]; 40 mg/kg once a day for 18 consecutive days, compared to vehicle) | mean spatial frequency threshold (SFT) ([2]; 40 mg/kg oral once a day, Day 16) [cycles/degree] | contrast thresholds compared to vehicle ([2]; 40 mg/kg oral once a day, Day 16, P=0.0009) | loss of contrast vision, baseline to Day 16 ([2]; 40 mg/kg oral once a day, OKT) [%] | loss of visual acuity, baseline to Day 16 ([2]; 40 mg/kg oral once a day, OKT) [%] | loss of ONL thickness in horizontal scans [2, 5] | loss of ONL thickness in vertical scans [2, 5] [%] | total retinal thickness across the treatment arms ([2]; 40 mg/kg oral vs vehicle, OCT) | difference in mean SFT versus vehicle ([2]; Day 16) | mean retinal thickness across vertical and horizontal scans ([2]; across both arms and timepoints) | tissue distribution ([3]; 18 days) | detection in ocular tissues ([3]; up to 4 hours following the terminal dose) | efficacy in laser CNV model ([4]; 2 mg IVT) | Corrected Total Lesion Fluorescence (CTLF) value, change from Day 7 to Day 28 ([4]; Group 1: 2 mg, 50 μL/eye IVT)
< 10 | present in the plasma up to 4 hours | Cc1[nH]c(/C=C2\C(=O)Nc3ccc(F)cc32)c(C)c1C(=O)N[C@H]1CCN(C(=O)N(C)C)C1 [vorolanib, (S,Z)—N-(1-(Dimethylcarbamoyl)pyrrolidin-3-yl)-5-((5-fluoro-2-oxoindolin-3-ylidene)methyl)-2,4-dimethyl-1H-pyrrole-3-carboxamide] | significant neuroprotective effect | 0.306 | significantly higher; also recorded: statistically significant improvement | 41 | 23 | no loss | 1 | no statistically significant differences | not statistically significant | 222-229 μm | primarily in RPE/Choroid/Sclera tissue at levels that exceed plasma concentrations | within detectable range in all ocular tissues tested, except lens tissue |  | 
 |  | aflibercept: VEGF inhibitor (Regeneron), intravitreal injection, positive control |  |  |  |  |  |  |  |  |  |  |  |  | normal amounts of efficacy | largest reduction
